In US5362634A, “Process for producing A83543 compounds” (DowElanco, priority 1991, dated 1994):
In brackets after ≈: the same amount, converted by molar mass. Where two headings read alike, the source gives them in different places.

Tests used:
[1] = tested on: SAW (Southern armyworm) larvae; experiment: Foliar/bushbean test against SAW larvae; type: in vivo; settings: Spodoptera eridania, foliar; for inhibition at 0.5 ppm: 0.50 ppm
Description: (§1) Each test compound was formulated by dissolving the compound in an acetone/alcohol (1:1) mixture containing 23 g of "Toximul R" (sulfonate/nonionic emulsifier blend) and 13 g of "Toximul S" (sulfonate/nonionic emulsifier blend) per liter. These mixtures were then diluted with water to give the indicated concentrations.
[…] Other plants in the same treatment pot were left uninfested. The leaves were then sprayed with 5 mL of test solution using a DeVilbiss atomizing sprayer at 10 psi. Both surfaces of the leaves were covered until runoff and then allowed to dry for one hour. Two uninfested leaves were then excised and placed into a Petri dish containing Southern armyworm (Spodoptera eridania Cramer).
(§2) Additional insects were evaluated using similar formulations and evaluation procedures, with the exceptions noted.
(§3) After standard exposure periods, percent mortality was evaluated. The following abbreviations are used:
(§4) ^a Days between treatment and observation
(§5) ^b Mean of replicates tested

[2] = tested on: SAW (Southern armyworm) larvae; experiment: Topical test against SAW larvae; type: in vivo; settings: Spodoptera eridania
Description: as §1, §2, §3, §4, §5
^f Treated topically with 1 mL of formulated A83543A

[3] = tested on: first instar yellow fever mosquito larvae; experiment: In vitro mosquito larvicide test, first instar; settings: Aedes aegypti, 24 h, lowest concentration with 100% inhibition after 24 hr, microtiter plates, read-out: Minimal Inhibitory Concentration
Source text: The A83543 components were active against yellow fever mosquito (Aedes aegypti) larvae in standard in vitro mosquito larvicide tests.

[4] = tested on: mixture of soybean loopers (75%) and fall armyworm (25%); experiment: Field trial, soybean loopers and fall armyworm on soybean; type: in vivo
Description: A83543A was evaluated in field trials.

larval blow fly = experiment: Insecticidal assay in blood of sheep challenged with Haemonchus contortus, larval blow fly; type: in vivo
Description: Blood is drawn from the guinea pigs at 30 minutes except as noted, and the samples of blood are centrifuged. Dental wicks are saturated with the blood serum, and then exposed in Petri dishes to adult stable flies; blow fly larvae are exposed in test tubes. After 24 and 48 hours, the insects are examined, and the number of dead are counted. The results of the tests are recorded as the percent of the insects which are killed.
Tests are carried out in sheep using the test method described supra in the Guinea Pig Test description. […]
^b Amount (mg/kg) times number of doses administered
^c Times postadministration at which blood is drawn

Structure (SMILES): CC[C@H]1CCC[C@H](O[C@H]2CC[C@H](N(C)C)[C@@H](C)O2)[C@@H](C)C(=O)C2=C[C@@H]3[C@@H](C=C[C@@H]4C[C@@H](O[C@@H]5O[C@@H](C)[C@H](OC)[C@@H](OC)[C@H]5OC)C[C@@H]34)[C@@H]2CC(=O)O1 [A83543A]
- inhibition at 1 ppm ([1]; 72 h, neonate, 3 days): 10%
- inhibition at 5 ppm ([1]; 72 h, neonate, 3 days): 40%
- inhibition at 10 ppm ([1]; 72 h, neonate, 3 days): 100%
- inhibition at 50 ppm ([1]; 72 h, neonate, 3 days): 100%
- inhibition at 100 ppm ([1]; 72 h, neonate, 3 days): 100%
- inhibition at 10 ppm ([1]; 96 h, fifth instar, 4 days): 0%
- inhibition at 50 ppm ([1]; 96 h, fifth instar, 4 days): 0%
- inhibition at 0.5 ppm ([1]; 96 h, neonate, 4 days): 0%
- inhibition at 1 ppm ([1]; 96 h, neonate, 4 days): 66.7%
- inhibition at 5 ppm ([1]; 96 h, neonate, 4 days): 100%
- inhibition at 10 ppm ([1]; 96 h, neonate, 4 days): 100%
- inhibition at 50 ppm ([1]; 96 h, neonate, 4 days): 100%
- inhibition at 1 ppm ([1]; 96 h, second instar, 4 days): 0%
- inhibition at 5 ppm ([1]; 96 h, second instar, 4 days): 0%
- inhibition at 10 ppm ([1]; 96 h, second instar, 4 days): 80%
- inhibition at 50 ppm ([1]; 96 h, second instar, 4 days): 80%
- inhibition at 100 ppm ([1]; 96 h, second instar, 4 days): 100%
- inhibition at 0.5 ppm ([1]; 96 h, third instar, 4 days): 0%
- inhibition at 1 ppm ([1]; 96 h, third instar, 4 days): 0%
- inhibition at 5 ppm ([1]; 96 h, third instar, 4 days): 40%
- inhibition at 10 ppm ([1]; 96 h, third instar, 4 days): 100%
- inhibition at 50 ppm ([1]; 96 h, third instar, 4 days): 100%
- inhibition at 1 ppm ([2]; 24 h, second instar, 1 day): 0%
- inhibition at 5 ppm ([2]; 24 h, second instar, 1 day): 0%
- inhibition at 10 ppm ([2]; 24 h, second instar, 1 day): 0%
- inhibition at 50 ppm ([2]; 24 h, second instar, 1 day): 80%
- inhibition at 100 ppm ([2]; 24 h, second instar, 1 day): 100%
- inhibition at 10 ppm ([2]; 48 h, fifth instar, 2 days): 0%
- inhibition at 50 ppm ([2]; 48 h, fifth instar, 2 days): 0%
- inhibition at 1 ppm ([2]; 48 h, third instar, 2 days): 0%
- inhibition at 5 ppm ([2]; 48 h, third instar, 2 days): 0%
- inhibition at 10 ppm ([2]; 48 h, third instar, 2 days): 13.3%
- inhibition at 50 ppm ([2]; 48 h, third instar, 2 days): 73.3%
- inhibition at 1 ppm ([2]; 72 h, neonate, 3 days): 0%
- inhibition at 5 ppm ([2]; 72 h, neonate, 3 days): 60%
- inhibition at 10 ppm ([2]; 72 h, neonate, 3 days): 100%
- inhibition at 50 ppm ([2]; 72 h, neonate, 3 days): 100%
- inhibition at 100 ppm ([2]; 72 h, neonate, 3 days): 100%
- MIC [3]: 0.016 µg/mL (≈ 0.0219 µM)
- MIC ([3]; second of two lots): 0.031 µg/mL (≈ 0.0424 µM)
- activity in field trials [4]: showed activity
- Percent Insecticide Mortality (larval blow fly; 1 × 1 mg/kg IV, 35 min, L, 24-hour exposure): 25%
- Percent Insecticide Mortality (larval blow fly; 1 × 1 mg/kg IV, 35 min, L, 48-hour exposure): 25%
- Percent Insecticide Mortality (larval blow fly; 1 × 1 mg/kg IV, 5 hr, L, 24-hour exposure): 10%
- Percent Insecticide Mortality (larval blow fly; 1 × 1 mg/kg IV, 5 hr, L, 48-hour exposure): 10%
- Percent Insecticide Mortality (larval blow fly; 1 × 1 mg/kg IV, Day 0, L, 24-hour exposure): 0%
- Percent Insecticide Mortality (larval blow fly; 1 × 1 mg/kg IV, Day 0, L, 48-hour exposure): 0%
- Percent Insecticide Mortality (larval blow fly; 1 × 1 mg/kg IV, Day 1, L, 24-hour exposure): 0%
- Percent Insecticide Mortality (larval blow fly; 1 × 1 mg/kg IV, Day 1, L, 48-hour exposure): 0%
- Percent Insecticide Mortality (larval blow fly; 1 × 1 mg/kg IV, Day 2, L, 24-hour exposure): 0%
- Percent Insecticide Mortality (larval blow fly; 1 × 1 mg/kg IV, Day 2, L, 48-hour exposure): 0%
- Percent Insecticide Mortality (larval blow fly; 1 × 1 mg/kg IV, Day 3, L, 24-hour exposure): 0%
- Percent Insecticide Mortality (larval blow fly; 1 × 1 mg/kg IV, Day 3, L, 48-hour exposure): 0%
- Percent Insecticide Mortality (larval blow fly; 1 × 1 mg/kg IV, Day 4, L, 24-hour exposure): 0%
- Percent Insecticide Mortality (larval blow fly; 1 × 1 mg/kg IV, Day 4, L, 48-hour exposure): 0%
- Percent Insecticide Mortality (larval blow fly; 1 × 1 mg/kg IV, Day 5, L, 24-hour exposure): 0%
- Percent Insecticide Mortality (larval blow fly; 1 × 1 mg/kg IV, Day 5, L, 48-hour exposure): 0%
- Percent Insecticide Mortality (larval blow fly; 25 × 2 mg/kg IR, 35 min, L, 24-hour exposure): 0%
- Percent Insecticide Mortality (larval blow fly; 25 × 2 mg/kg IR, 35 min, L, 48-hour exposure): 0%
- Percent Insecticide Mortality (larval blow fly; 25 × 2 mg/kg IR, 5 hr, L, 24-hour exposure): 25%
- Percent Insecticide Mortality (larval blow fly; 25 × 2 mg/kg IR, 5 hr, L, 48-hour exposure): 50%
- Percent Insecticide Mortality (larval blow fly; 25 × 2 mg/kg IR, Day 0, L, 24-hour exposure, 0 min): 0%
- Percent Insecticide Mortality (larval blow fly; 25 × 2 mg/kg IR, Day 0, L, 48-hour exposure): 0%
- Percent Insecticide Mortality (larval blow fly; 25 × 2 mg/kg IR, Day 1, L, 24-hour exposure): 100%
- Percent Insecticide Mortality (larval blow fly; 25 × 2 mg/kg IR, Day 1, L, 48-hour exposure): 100%
- Percent Insecticide Mortality (larval blow fly; 25 × 2 mg/kg IR, Day 2, L, 24-hour exposure): 90%
- Percent Insecticide Mortality (larval blow fly; 25 × 2 mg/kg IR, Day 2, L, 48-hour exposure): 100%
- Percent Insecticide Mortality (larval blow fly; 25 × 2 mg/kg IR, Day 3, L, 24-hour exposure): 90%
- Percent Insecticide Mortality (larval blow fly; 25 × 2 mg/kg IR, Day 3, L, 48-hour exposure): 100%
- Percent Insecticide Mortality (larval blow fly; 25 × 2 mg/kg IR, Day 4, L, 24-hour exposure): 60%
- Percent Insecticide Mortality (larval blow fly; 25 × 2 mg/kg IR, Day 4, L, 48-hour exposure): 90%
- Percent Insecticide Mortality (larval blow fly; 25 × 2 mg/kg IR, Day 5, L, 24-hour exposure): 50%
- Percent Insecticide Mortality (larval blow fly; 25 × 2 mg/kg IR, Day 5, L, 48-hour exposure): 75%
- Percent Insecticide Mortality (larval blow fly; 50 × 1 mg/kg IP, 35 min, L, 24-hour exposure): 0%
- Percent Insecticide Mortality (larval blow fly; 50 × 1 mg/kg IP, 35 min, L, 48-hour exposure): 10%
- Percent Insecticide Mortality (larval blow fly; 50 × 1 mg/kg IP, 5 hr, L, 24-hour exposure): 10%
- Percent Insecticide Mortality (larval blow fly; 50 × 1 mg/kg IP, 5 hr, L, 48-hour exposure): 10%
- Percent Insecticide Mortality (larval blow fly; 50 × 1 mg/kg IP, Day 0, L, 24-hour exposure, 0 min): 0%
- Percent Insecticide Mortality (larval blow fly; 50 × 1 mg/kg IP, Day 0, L, 48-hour exposure): 0%
- Percent Insecticide Mortality (larval blow fly; 50 × 1 mg/kg IP, Day 1, L, 24-hour exposure): 10%
- Percent Insecticide Mortality (larval blow fly; 50 × 1 mg/kg IP, Day 1, L, 48-hour exposure): 10%
- Percent Insecticide Mortality (larval blow fly; 50 × 1 mg/kg IP, Day 2, L, 24-hour exposure, 2880 min): 20%
- Percent Insecticide Mortality (larval blow fly; 50 × 1 mg/kg IP, Day 2, L, 48-hour exposure): 20%
- Percent Insecticide Mortality (larval blow fly; 50 × 1 mg/kg IP, Day 3, L, 24-hour exposure, 4320 min): 20%
- Percent Insecticide Mortality (larval blow fly; 50 × 1 mg/kg IP, Day 3, L, 48-hour exposure): 20%
- Percent Insecticide Mortality (larval blow fly; 50 × 1 mg/kg IP, Day 4, L, 24-hour exposure, 5760 min): 10%
- Percent Insecticide Mortality (larval blow fly; 50 × 1 mg/kg IP, Day 4, L, 48-hour exposure): 20%
- Percent Insecticide Mortality (larval blow fly; 50 × 1 mg/kg IP, Day 5, L, 24-hour exposure, 7200 min): 10%
- Percent Insecticide Mortality (larval blow fly; 50 × 1 mg/kg IP, Day 5, L, 48-hour exposure): 25%
- Percent Insecticide Mortality (larval blow fly; 50 × 1 mg/kg IR, 35 min, L, 24-hour exposure): 0%
- Percent Insecticide Mortality (larval blow fly; 50 × 1 mg/kg IR, 35 min, L, 48-hour exposure): 0%
- Percent Insecticide Mortality (larval blow fly; 50 × 1 mg/kg IR, 5 hr, L, 24-hour exposure): 40%
- Percent Insecticide Mortality (larval blow fly; 50 × 1 mg/kg IR, 5 hr, L, 48-hour exposure): 75%
- Percent Insecticide Mortality (larval blow fly; 50 × 1 mg/kg IR, Day 0, L, 24-hour exposure, 0 min): 0%
- Percent Insecticide Mortality (larval blow fly; 50 × 1 mg/kg IR, Day 0, L, 48-hour exposure): 0%
- Percent Insecticide Mortality (larval blow fly; 50 × 1 mg/kg IR, Day 1, L, 24-hour exposure): 90%
- Percent Insecticide Mortality (larval blow fly; 50 × 1 mg/kg IR, Day 1, L, 48-hour exposure): 100%
- Percent Insecticide Mortality (larval blow fly; 50 × 1 mg/kg IR, Day 2, L, 24-hour exposure, 2880 min): 90%
- Percent Insecticide Mortality (larval blow fly; 50 × 1 mg/kg IR, Day 2, L, 48-hour exposure): 100%
- Percent Insecticide Mortality (larval blow fly; 50 × 1 mg/kg IR, Day 3, L, 24-hour exposure, 4320 min): 80%
- Percent Insecticide Mortality (larval blow fly; 50 × 1 mg/kg IR, Day 3, L, 48-hour exposure): 100%
- Percent Insecticide Mortality (larval blow fly; 50 × 1 mg/kg IR, Day 4, L, 24-hour exposure, 5760 min): 40%
- Percent Insecticide Mortality (larval blow fly; 50 × 1 mg/kg IR, Day 4, L, 48-hour exposure): 40%
- Percent Insecticide Mortality (larval blow fly; 50 × 1 mg/kg IR, Day 5, L, 24-hour exposure, 7200 min): 20%
- Percent Insecticide Mortality (larval blow fly; 50 × 1 mg/kg IR, Day 5, L, 48-hour exposure): 25%
